What was measured:
[1] = Oral bioavailability estimated from bradycardia AUC oral vs intravenous in conscious rats; format: in vivo, rat; details: male, Sprague-Dawley, rat, in vivo
From the text: (§1) Concentration dose-effect curve data were fitted to a sigmoid curve using Graphpad PRIZM™ software to obtain the concentration or dose of test compound that produces 50% of the maximal obtainable response, in vitro EC50 or in vivo ED50 values, for activation of the adenosine A1 receptor. Responses measured to each dose were the plateau negative inotropic response to cumulative additions of test compound in the isolated left atria and the peak bradycardia in response to bolus intravenous injections of test compound in conscious rats. Oral bioavailability was estimated from pharmacodynamic responses using the expression: (Response AUCoral/Response AUCiv)(Doseiv/Doseoral), where Response AUC is the area under the curve for test compound-induced bradycardia over time.
(§2) Male Sprague-Dawley rats were anesthetized with sodium pentobarbital 50 mg/kg i.p., and indwelling catheters were surgically implanted in the carotid artery and jugular vein two days prior to each experiment. During all subsequent experiments, rats were conscious and unrestrained. The carotid artery cannula was attached to a pressure transducer and blood pressure was recorded continuously throughout each experiment using a Grass polygraph. Heart rate was derived from the blood pressure signal using a Grass tachygraph. The measured parameters were allowed from 30 to 90 minutes to stabilize before the administration of test compound.
Test compounds were administered either by oral gavage using a curved, bulbed oral dosing cannula, or by intravenous administration via the jugular vein indwelling catheter. Rats dosed orally were fasted overnight before dosing, with water available ad libitum. Because the heart rate responses following intravenous administration of test compound rapidly returned to baseline, more than one dose of test compound could be administered to each rat. However, the responses to oral administration of test compounds were of a prolonged duration and therefore only a single dose could be administered to each rat.
A comparison of the area under the bradycardia vs. time curve (AUC) following intravenous administration with the AUC following oral administration was used as a measure of oral bioavailability.

adenosine A1 receptor [2] = test: Rat isolated Langendorff heart paced at 360 bpm: AV conduction (S-V interval) and coronary blood flow; details: at 6.8 nM and 8.3 nM, rat isolated heart
Procedure: (§3) Rat isolated hearts were prepared according to the method of Langendorff in which the coronary vasculature was perfused in a retrograde fashion at constant pressure via the aorta. Coronary blood flow was determined by measuring the volume of fluid leaving the heart. Heart rate was maintained at 360 beats per minute by electrical pacing of the right atrium. Atrioventricular (AV) conduction was determined as the time from the atrial stimulus to the beginning of ventricular depolarization (S-V interval).

conscious rats = test: Heart rate and blood pressure in conscious unrestrained rats (intravenous or oral); format: in vivo, rat
Procedure: as §2
Compound A was administered by intravenous administration via the jugular vein indwelling catheter or by oral gavage using a curved, bulbed oral dosing cannula. Food and water were available ad libitum.

[3] = system: guinea pig isolated heart; test: Guinea pig isolated electrically paced heart: effect of heart rate on AV interval and heart block
Procedure: Guinea pig isolated hearts were prepared according to the method of Langendorff in which the coronary vasculature was perfused in a retrograde fashion at constant pressure via the aorta. Compound A was administered to the spontaneously beating hearts by infusion into the perfusion line supplying buffer to the coronary vasculature. The concentration of Compound A was adjusted by changes in the infusion rate and/or changes in the concentration of infusion solutions. The concentration of Compound A present in the perfusate was calculated by dividing the rate of Compound A infused by the coronary flow rate. Spontaneously beating heart rate and AV interval were recorded.
Guinea pig isolated hearts were prepared according to the methods described in Example 5. In the first portion of the experiment designed to determine the effect of heart rate on the negative dromotropic activity of Compound A, hearts were allowed to beat spontaneously or electrically paced either at 200 beats per minute (approximately 20% above the spontaneous rate) or at 300-360 beats per minute (approximately 80% above the spontaneous rate). Atrioventricular (AV) conduction interval (AV interval) was determined as the time from the atrial stimulus to the beginning of ventricular depolarization. The AV interval measurements were performed at each pacing rate with increased concentrations of Compound A as described in Example 5. Upon electrical pacing at 200 beats per minute, Compound A at a mean concentration of 3.9 nM produced a mean maximal 58% increase in AV interval, and heart block at a mean minimal concentration of 5.1 nM. […] The results are summarized in the table below, with data from spontaneously beating hearts included for comparative purposes: […]

adenosine A1 receptor [4] = target: T1, adenosine A1 receptor (Rattus norvegicus, UniProt P25099); test: Negative inotropic response in electrically stimulated rat isolated left atria (isoproterenol-stimulated); design: from tissue; host or cells: whole animal (conscious Sprague-Dawley rats); details: plateau negative inotropic response, 1 Hz, isoproterenol 10^−8 M
T1 sequence (P25099 1-326): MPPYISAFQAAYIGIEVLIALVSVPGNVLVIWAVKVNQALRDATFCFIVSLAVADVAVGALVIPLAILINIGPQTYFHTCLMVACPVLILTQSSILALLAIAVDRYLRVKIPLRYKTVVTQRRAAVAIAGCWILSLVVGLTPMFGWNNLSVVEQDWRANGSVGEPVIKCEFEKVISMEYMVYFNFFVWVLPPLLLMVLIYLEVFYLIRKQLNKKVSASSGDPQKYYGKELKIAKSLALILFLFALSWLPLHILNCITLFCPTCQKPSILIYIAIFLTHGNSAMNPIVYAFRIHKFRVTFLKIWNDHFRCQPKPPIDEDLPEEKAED
From the text: as §1
Male Sprague-Dawley rats weighing 200-350 grams were sacrificed and the hearts rapidly removed and placed in a warmed Krebs-Henseleit buffer solution. The left atria were dissected free from the hearts and suspended in 30 mL jacketed isolated organ baths filled with Krebs-Henseleit buffer, oxygenated with 95% O2/5% CO2 and maintained at 37° C. Tissues were connected to a force displacement transducer under a resting tension of 1 gram. Atria were stimulated electrically at 1 Hz, 1 msec duration and supramaximal voltage to produce regular contractions of tissue.
Adenosine A1 agonists were added to the baths at increasing cumulative concentrations until a maximal decrease in the force of contraction was obtained. Because adenosine A1 agonists have only a small direct negative inotropic action in rat atria, it was necessary to stimulate β-adrenergic receptors to produce positive inotropy in order to maximize the negative intropic response and thereby facilitate measurement. Under these conditions, adenosine A1 agonists acting at A1 receptors indirectly reduce the β-adrenergic mediated positive inotropy. Accordingly, the β-adrenergic agonist isoproterenol (10^−8 M) was added to the organ baths approximately 15 minutes before the addition of the adenosine A1 agonist.

adenosine A1 receptor [5] = target: T1, adenosine A1 receptor; test: Rat isolated Langendorff heart paced at 360 bpm: AV conduction (S-V interval) and coronary blood flow; design: Rat isolated hearts were prepared according to the method of Langendorff; from tissue; host or cells: rat isolated perfused heart (Langendorff); details: rat isolated heart paced at 360 beats per minute
Procedure: as §3

[6] = 0.1 μg/kg/min intravenously for 120 minutes

For `CCNC(=O)[C@H]1O[C@@H](n2cnc3c(NC4CCCC4)ncnc32)[C@H](O)[C@@H]1O` [Compound A, ethyl N^6-cyclopentyladenosine-5′-uronamide], the bioavailability [1] was 53%, the “effect on coronary blood flow” value (adenosine A1 receptor [2]) was “no effect” and the mean blood pressure (conscious rats; [6]) was “remained unchanged”. For the same compound, the “mean decrease in heart rate” value (conscious rats; [6]) was 34%, the “mean decrease in heart rate” value (conscious rats; 100 μg/kg oral) was 40% and the “change in blood pressure” value (conscious rats; intravenous dose range 0.05 μg/kg/min to 0.1 μg/kg/min) was “no change”. For the same compound, the “ED50 for induction of bradycardia” value (conscious rats; intravenously for 120 minutes, conscious rats) was 0.1 µg/kg/min, the “change in blood pressure” value (conscious rats; oral dose range 30 μg/kg to 100 μg/kg) was “no change” and the “mean maximal increase in AV interval” value ([3]; paced at 200 beats per minute, at 3.9 nM) was 58%. The “Mean Concentration of Compound A Required to Produce Maximal AV Interval” value ([3]; paced at 200 bpm) was 3.9 nM, the “Mean Minimal Concentration of Compound A Required to Produce Heart Block” value ([3]; paced at 200 bpm) was 5.1 nM and the “mean maximal increase in AV interval” value ([3]; paced at 300-360 beats per minute, at 1.45 nM) was 20%. For the same compound, the “Mean Concentration of Compound A Required to Produce Maximal AV Interval” value ([3]; paced at 300-360 bpm) was 1.45 nM, the “Mean Minimal Concentration of Compound A Required to Produce Heart Block” value ([3]; paced at 300-360 bpm) was 2.1 nM and the EC50 (adenosine A1 receptor [4]) was 15.5 nM. The “mean concentration at maximal increase in S-V interval” value (adenosine A1 receptor [5]) was 6.8 nM and the “mean concentration for AV conduction blockade” value (adenosine A1 receptor [5]) was 8.3 nM.

— patent US6784165B1, “Treatment of heart rhythm disturbances with N6-substituted-5′-(N-substituted) carboxamidoadenosines” (Aderis Pharmaceuticals, Inc., priority 1999, dated 2004)
